Laboratory results published in patent US8952024B2, “Herbicidal pyrimidone derivatives” (E I du Pont de Nemours and Company, priority 2009, dated 2015).

What was measured:
Assay in all cases: Test B pre-/postemergence plant response
Format in all cases: in vivo
[1] = test system: lambsquarters (Chenopodium album); details: for Plant response rating, Lambsquarters: Postemergence
How it was run: (§1)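 Pre-em in loam/sand; post-em at 1–4 leaf (2–18 cm) in peat mix. Solvent + surfactant formulation. Greenhouse 13–15 d; visual % control vs untreated, 0–100.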

[2] = test system: corn (Zea mays); details: for Plant response rating, Corn: Postemergence
How it was run: as §1

[3] = test system: blackgrass (Alopecurus myosuroides); details: for Plant response rating, Blackgrass: Postemergence
How it was run: as §1

[4] = test system: kochia (Kochia scoparia); details: for Plant response rating, Kochia: Postemergence
How it was run: as §1

[5] = test system: large crabgrass (Digitaria sanguinalis); details: for Plant response rating, Crabgrass, Large: Postemergence
How it was run: as §1

[6] = test system: yellow nutsedge (Cyperus esculentus); details: for Plant response rating, Nutsedge, Yellow: Postemergence
How it was run: as §1

[7] = test system: morningglory (Ipomoea coccinea); details: for Plant response rating, Morningglory: Postemergence
How it was run: as §1

[8] = test system: johnsongrass (Sorghum halepense); details: for Plant response rating, Johnsongrass: Postemergence
How it was run: as §1

[9] = test system: soybean (Glycine max); details: for Plant response rating, Soybean: Postemergence
How it was run: as §1

[10] = test system: goosegrass (Eleusine indica); details: for Plant response rating, Goosegrass: Postemergence
How it was run: as §1

[11] = test system: velvetleaf (Abutilon theophrasti); details: for Plant response rating, Velvetleaf: Postemergence
How it was run: as §1

[12] = test system: pigweed (Amaranthus retroflexus); details: for Plant response rating, Pigweed: Postemergence
How it was run: as §1

[13] = test system: Surinam grass (Brachiaria decumbens); details: for Plant response rating, Surinam Grass: Postemergence
How it was run: as §1

[14] = test system: woolly cupgrass (Eriochloa villosa); details: for Plant response rating, Cupgrass, Woolly: Postemergence
How it was run: as §1

[15] = test system: downy bromegrass (Bromus tectorum); details: for Plant response rating, Bromegrass, Downy: Postemergence
How it was run: as §1

[16] = test system: wild oat (Avena fatua); details: for Plant response rating, Oat, Wild: Postemergence
How it was run: as §1

[17] = test system: green foxtail (Setaria viridis); details: for Plant response rating, Foxtail, Green: Postemergence
How it was run: as §1

[18] = 62 g ai/ha, postemergence, 0 is no effect, 100 is complete control, 13 to 15 days
[19] = 31 g ai/ha, 0 to 100 scale (0 no effect, 100 complete control)
[20] = 125 g ai/ha, scale 0 to 100 (0 no effect, 100 complete control)
[21] = 250 g ai/ha, scale 0 to 100 (0 no effect, 100 complete control), 13 to 15 days

**Q.** How did the “Lambsquarters plant response rating (0 to 100 scale)” value [1, 18] turn out when `O=C1CCCC(O)=C1C(=O)c1cnc(-c2ccccc2)n(C2CCOCC2)c1=O` [Compound 129] was run?
**A.** Its value is 95.

**Q.** What about the “Plant response rating, Lambsquarters” value [1, 19] of the same molecule?
**A.** The value was 90.

**Q.** What about the “Plant response rating, Lambsquarters” value [1, 20] of the same molecule?
**A.** Its value is 95.

**Q.** What about the “Plant response rating, Lambsquarters” value [1, 21] of the same molecule?
**A.** The value was 98.

**Q.** What about the “Corn plant response rating (0 to 100 scale)” value [2, 18] of the same molecule?
**A.** Its value is 35.

**Q.** What about the “Plant response rating, Corn” value [2, 19] of the same molecule?
**A.** The value was 20.

**Q.** What about the “Plant response rating, Corn” value [2, 20] of the same molecule?
**A.** Its value is 60.

**Q.** And the “Plant response rating, Corn” value [2, 21]?
**A.** Its value is 60.

**Q.** And the “Blackgrass plant response rating (0 to 100 scale)” value [3, 18]?
**A.** The value was 5.

**Q.** What about the “Plant response rating, Blackgrass” value [3, 19] of the same molecule?
**A.** The value was 0.

**Q.** What about the “Plant response rating, Blackgrass” value [3, 20] of the same molecule?
**A.** The value was 5.

**Q.** What about the “Plant response rating, Blackgrass” value [3, 21] of the same molecule?
**A.** Its value is 5.

**Q.** What about the “Kochia plant response rating (0 to 100 scale)” value [4, 18] of the same molecule?
**A.** Its value is 95.

**Q.** What about the “Plant response rating, Kochia” value [4, 19] of the same molecule?
**A.** The value was 80.

**Q.** And the “Plant response rating, Kochia” value [4, 20]?
**A.** The value was 95.

**Q.** What about the “Plant response rating, Kochia” value [4, 21] of the same molecule?
**A.** The value was 98.

**Q.** What about the “Crabgrass, Large plant response rating (0 to 100 scale)” value [5, 18] of the same molecule?
**A.** The value was 80.

**Q.** And the “Plant response rating, Crabgrass, Large” value [5, 19]?
**A.** Its value is 80.

**Q.** What about the “Plant response rating, Crabgrass, Large” value [5, 20] of the same molecule?
**A.** The value was 85.

**Q.** And the “Plant response rating, Crabgrass, Large” value [5, 21]?
**A.** The value was 85.

**Q.** What about the “Nutsedge, Yellow plant response rating (0 to 100 scale)” value [6, 18] of the same molecule?
**A.** Its value is 35.

**Q.** And the “Plant response rating, Nutsedge, Yellow” value [6, 19]?
**A.** Its value is 35.

**Q.** What about the “Plant response rating, Nutsedge, Yellow” value [6, 20] of the same molecule?
**A.** Its value is 60.

**Q.** And the “Plant response rating, Nutsedge, Yellow” value [6, 21]?
**A.** Its value is 85.

**Q.** And the “Morningglory plant response rating (0 to 100 scale)” value [7, 18]?
**A.** The value was 90.

**Q.** And the “Plant response rating, Morningglory” value [7, 19]?
**A.** Its value is 90.

**Q.** And the “Plant response rating, Morningglory” value [7, 20]?
**A.** The value was 90.

**Q.** And the “Plant response rating, Morningglory” value [7, 21]?
**A.** The value was 90.

**Q.** What about the “Johnsongrass plant response rating (0 to 100 scale)” value [8, 18] of the same molecule?
**A.** Its value is 45.

**Q.** And the “Plant response rating, Johnsongrass” value [8, 19]?
**A.** The value was 40.

**Q.** What about the “Plant response rating, Johnsongrass” value [8, 20] of the same molecule?
**A.** Its value is 70.

**Q.** And the “Plant response rating, Johnsongrass” value [8, 21]?
**A.** Its value is 85.

**Q.** What about the “Soybean plant response rating (0 to 100 scale)” value [9, 18] of the same molecule?
**A.** The value was 98.

**Q.** What about the “Plant response rating, Soybean” value [9, 19] of the same molecule?
**A.** Its value is 95.

**Q.** And the “Plant response rating, Soybean” value [9, 20]?
**A.** Its value is 98.

**Q.** And the “Plant response rating, Soybean” value [9, 21]?
**A.** The value was 98.

**Q.** What about the “Goosegrass plant response rating (0 to 100 scale)” value [10, 18] of the same molecule?
**A.** Its value is 85.

**Q.** And the “Plant response rating, Goosegrass” value [10, 19]?
**A.** The value was 85.

**Q.** What about the “Plant response rating, Goosegrass” value [10, 20] of the same molecule?
**A.** The value was 90.

**Q.** What about the “Plant response rating, Goosegrass” value [10, 21] of the same molecule?
**A.** Its value is 95.

**Q.** And the “Velvetleaf plant response rating (0 to 100 scale)” value [11, 18]?
**A.** Its value is 95.

**Q.** What about the “Plant response rating, Velvetleaf” value [11, 19] of the same molecule?
**A.** The value was 95.

**Q.** What about the “Plant response rating, Velvetleaf” value [11, 20] of the same molecule?
**A.** Its value is 95.

**Q.** And the “Plant response rating, Velvetleaf” value [11, 21]?
**A.** The value was 100.

**Q.** What about the “Pigweed plant response rating (0 to 100 scale)” value [12, 18] of the same molecule?
**A.** Its value is 95.

**Q.** What about the “Plant response rating, Pigweed” value [12, 19] of the same molecule?
**A.** The value was 85.

**Q.** And the “Plant response rating, Pigweed” value [12, 20]?
**A.** The value was 98.

**Q.** What about the “Plant response rating, Pigweed” value [12, 21] of the same molecule?
**A.** Its value is 98.

**Q.** And the “Surinam Grass plant response rating (0 to 100 scale)” value [13, 18]?
**A.** The value was 85.

**Q.** What about the “Plant response rating, Surinam Grass” value [13, 19] of the same molecule?
**A.** Its value is 80.

**Q.** And the “Plant response rating, Surinam Grass” value [13, 20]?
**A.** The value was 85.

**Q.** What about the “Plant response rating, Surinam Grass” value [13, 21] of the same molecule?
**A.** Its value is 85.

**Q.** And the “Cupgrass, Woolly plant response rating (0 to 100 scale)” value [14, 18]?
**A.** Its value is 85.

**Q.** And the “Plant response rating, Cupgrass, Woolly” value [14, 19]?
**A.** The value was 80.

**Q.** And the “Plant response rating, Cupgrass, Woolly” value [14, 20]?
**A.** The value was 85.

**Q.** What about the “Plant response rating, Cupgrass, Woolly” value [14, 21] of the same molecule?
**A.** Its value is 85.

**Q.** And the “Bromegrass, Downy plant response rating (0 to 100 scale)” value [15, 18]?
**A.** The value was 10.

**Q.** What about the “Plant response rating, Bromegrass, Downy” value [15, 19] of the same molecule?
**A.** Its value is 5.

**Q.** And the “Plant response rating, Bromegrass, Downy” value [15, 20]?
**A.** The value was 15.

**Q.** And the “Plant response rating, Bromegrass, Downy” value [15, 21]?
**A.** Its value is 35.

**Q.** And the “Oat, Wild plant response rating (0 to 100 scale)” value [16, 18]?
**A.** The value was 5.

**Q.** What about the “Plant response rating, Oat, Wild” value [16, 19] of the same molecule?
**A.** The value was 0.

**Q.** What about the “Plant response rating, Oat, Wild” value [16, 20] of the same molecule?
**A.** Its value is 20.

**Q.** And the “Plant response rating, Oat, Wild” value [16, 21]?
**A.** The value was 30.

**Q.** And the “Foxtail, Green plant response rating (0 to 100 scale)” value [17, 18]?
**A.** The value was 90.

**Q.** And the “Plant response rating, Foxtail, Green” value [17, 19]?
**A.** Its value is 80.

**Q.** And the “Plant response rating, Foxtail, Green” value [17, 20]?
**A.** The value was 90.

**Q.** And the “Plant response rating, Foxtail, Green” value [17, 21]?
**A.** The value was 95.
